Measurements reported in US20260365634A1, “HERBICIDAL PYRAZOLE COMPOUNDS” (SYNGENTA CROP PROTECTION AG, priority 2022, published 2026).

Legend:
Format in all cases: in vivo
Details in all cases: 250 g/ha, evaluated after 13 days
[1] = test system: Amaranthus palmeri (AMAPA); experiment: Pre-emergence herbicidal glasshouse test
Procedure: (§1) Seeds of a variety of test species are sown in standard soil in pots Amaranthus palmeri (AMAPA), Amaranthus retoflexus (AMARE), Echinochloa crus-galli (ECHCG), Ipomoea hederacea (IPOHE), Setaria faberi (SETFA). After cultivation for one day (pre-emergence) or after 8 days cultivation (post-emergence) under controlled conditions in a glasshouse (at 24/16 °C, day/night; 14 hours light; 65% humidity), the plants are sprayed with an aqueous spray solution derived from the formulation of the technical active ingredient in acetone/water (50:50) solution containing 0.5% Tween 20 (polyoxyethelyene sorbitan monolaurate, CAS RN 9005-64-5). Compounds are applied at 250 g/ha unless otherwise stated. The test plants are then grown in a glasshouse under controlled conditions in a glasshouse (at 24/16 °C, day/night; 14 hours light; 65% humidity) and watered twice daily. After 13 days for pre and post-emergence, the test is evaluated for the percentage damage caused to the plant. The biological activities are shown in the following table on a five-point scale (5=81-100%; 4=61-80%; 3=41-60%; 2=21-40%; 1=0-20%).

[2] = test system: Ipomoea hederacea (IPOHE); experiment: Pre-emergence herbicidal glasshouse test
Procedure: as §1

Setaria faberi (SETFA) [3] = experiment: Pre-emergence herbicidal glasshouse test
Procedure: as §1

[4] = test system: Amaranthus retoflexus (AMARE); experiment: Pre-emergence herbicidal glasshouse test
Procedure: as §1

[5] = test system: Echinochloa crus-galli (ECHCG); experiment: Pre-emergence herbicidal glasshouse test
Procedure: as §1

[6] = test system: Amaranthus palmeri (AMAPA); experiment: Post-emergence herbicidal glasshouse test
Procedure: as §1

[7] = test system: Ipomoea hederacea (IPOHE); experiment: Post-emergence herbicidal glasshouse test
Procedure: as §1

Setaria faberi (SETFA) [8] = experiment: Post-emergence herbicidal glasshouse test
Procedure: as §1

[9] = test system: Amaranthus retoflexus (AMARE); experiment: Post-emergence herbicidal glasshouse test
Procedure: as §1

[10] = test system: Echinochloa crus-galli (ECHCG); experiment: Post-emergence herbicidal glasshouse test
Procedure: as §1

Structure (SMILES)	percentage damage caused to the plant (five-point scale), AMAPA [1]	percentage damage caused to the plant (five-point scale), IPOHE [2]	percentage damage caused to the plant (five-point scale), SETFA (Setaria faberi (SETFA) [3])	percentage damage caused to the plant (five-point scale), AMARE [4]	percentage damage caused to the plant (five-point scale), ECHCG [5]	percentage damage caused to the plant (five-point scale), AMAPA [6]	percentage damage caused to the plant (five-point scale), IPOHE [7]	percentage damage caused to the plant (five-point scale), SETFA (Setaria faberi (SETFA) [8])	percentage damage caused to the plant (five-point scale), AMARE [9]	percentage damage caused to the plant (five-point scale), ECHCG [10]
FC(F)CCn1nc(C(F)F)cc1Cc1ncc(Cl)cn1 [Compound 1.008]	5 (81-100%)	3 (41-60%)	4 (61-80%)	5 (81-100%)	4 (61-80%)	3 (41-60%)	4 (61-80%)	1 (0-20%)	3 (41-60%)	1 (0-20%)
FC(F)(F)CCn1nc(C(F)(F)F)cc1Cc1ncc(Cl)cn1 [Compound 1.010]	5 (81-100%)	5 (81-100%)		5 (81-100%)	5 (81-100%)	4 (61-80%)	3 (41-60%)		5 (81-100%)	4 (61-80%)
CCCCn1nc(C(F)F)cc1Cc1ncc(Cl)cn1 [Compound 1.011]	5 (81-100%)	3 (41-60%)		5 (81-100%)	2 (21-40%)	2 (21-40%)	2 (21-40%)		2 (21-40%)	1 (0-20%)
CCCCn1nc(C(F)F)cc1Cc1ncc(Cl)cc1F [Compound 1.013]	3 (41-60%)	2 (21-40%)	3 (41-60%)	4 (61-80%)	3 (41-60%)	2 (21-40%)	2 (21-40%)	1 (0-20%)	2 (21-40%)	1 (0-20%)
Fc1cc(Cl)cnc1Cc1cc(C(F)(F)F)nn1CCC(F)(F)F [Compound 1.018]	5 (81-100%)	3 (41-60%)	5 (81-100%)	5 (81-100%)	5 (81-100%)	4 (61-80%)	4 (61-80%)	4 (61-80%)	1 (0-20%)	4 (61-80%)
CC(C)(C#N)CCCn1nc(C(F)(F)F)cc1Cc1ncc(Cl)cn1 [Compound 1.019]	1 (0-20%)	1 (0-20%)	1 (0-20%)	1 (0-20%)	1 (0-20%)	1 (0-20%)	1 (0-20%)	1 (0-20%)	1 (0-20%)	1 (0-20%)
CCCCn1nc(C(F)(F)Cl)cc1Cc1ncc(Cl)cn1 [Compound 1.020, 2-[[2-butyl-5-[chloro(difluoro)methyl]pyrazol-3-yl]methyl]-5-chloro-pyrimidine]	5 (81-100%)	2 (21-40%)	4 (61-80%)	5 (81-100%)	4 (61-80%)	4 (61-80%)	2 (21-40%)	1 (0-20%)	5 (81-100%)	2 (21-40%)
